A short description of series [1]: Pharmacokinetic parameters obtained in mice, 8 h oral exposure study. Type of series: in vivo. The settings on record: mouse, serum; single oral dose 50 mg/kg, solution in 70% PEG400/30% water, fasted male Balb/C mice; read-out: Pharmacokinetic Parameters AUC0-8 h. The method, then: Pharmacokinetic Parameters Obtained in Mice. In a 8 h oral exposure studies, a single-dose of 50 mg/kg of the compounds were delivered as a solution in 70% PEG400/30% water by oral gavage to fasted adult male Balb/C mice (n=2 or 3 per compound). Three serum samples were collected from each mouse at 0.5, 1, 4, 8 h time points following oral dosing. The first two samples were obtained by retro-orbital bleed (˜100 μL/20-25 g mouse) and the third sample by cardiac puncture. The blood samples were allowed to clot on ice, centrifuged and then serum harvested. Plasma samples were stored at −20° C. prior to analysis. The plasma samples were analyzed for parent compound via HPLC coupled tandem mass spectrometry (LC/MS/MS).

The subject of series [2] is GTL-16 human gastric carcinoma model. In words: In vivo efficacy against GTL-16 gastric carcinoma xenografts. The text has this:
In Vivo Efficacy Determination […] FIG. 1. Antitumor activity against GTL-16 gastric carcinoma xenografts

The next series addresses T1, GST-Met kinase (Homo sapiens, UniProt P08581).
T1 construct: host or cells: baculovirus expression system
Kind of series: Met kinase assay. The following applies: 1 μM ATP, polyGlu:Tyr (4:1) substrate, 60 min at 30° C. Type of series: biochemical.

In series [3] the test system is U87 human glioblastoma model. In words: In vivo efficacy against U87 glioblastoma xenografts. The text has this: In Vivo Efficacy Determination […] FIG. 2. Antitumor activity against U87 glioblastoma xenografts
In another series the target is T2, CYP3A4 (Homo sapiens, UniProt P08684).
T2 construct: host or cells: baculovirus-infected insect cells
In words: Cytochrome P450 assay (recombinant human CYP isoforms, fluorescence). Format: in vitro ADME.

Each structure is given as a SMILES string. Read-outs that look alike come from different tables or passages of the source.

T2 sequence (P08684 whole entry): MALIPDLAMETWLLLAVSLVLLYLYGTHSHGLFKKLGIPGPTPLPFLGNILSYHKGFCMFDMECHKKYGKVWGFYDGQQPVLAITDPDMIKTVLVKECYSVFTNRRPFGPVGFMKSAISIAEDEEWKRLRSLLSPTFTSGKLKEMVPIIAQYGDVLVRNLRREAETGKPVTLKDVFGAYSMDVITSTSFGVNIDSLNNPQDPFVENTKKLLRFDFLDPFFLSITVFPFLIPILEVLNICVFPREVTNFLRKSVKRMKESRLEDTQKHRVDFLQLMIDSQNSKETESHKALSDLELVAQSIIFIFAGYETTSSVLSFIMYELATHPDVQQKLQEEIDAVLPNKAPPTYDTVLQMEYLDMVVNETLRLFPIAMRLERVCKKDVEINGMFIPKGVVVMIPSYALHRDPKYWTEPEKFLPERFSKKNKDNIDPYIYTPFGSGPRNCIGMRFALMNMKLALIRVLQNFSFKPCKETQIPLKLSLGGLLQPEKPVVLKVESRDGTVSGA
T1 sequence (P08581 25-1390): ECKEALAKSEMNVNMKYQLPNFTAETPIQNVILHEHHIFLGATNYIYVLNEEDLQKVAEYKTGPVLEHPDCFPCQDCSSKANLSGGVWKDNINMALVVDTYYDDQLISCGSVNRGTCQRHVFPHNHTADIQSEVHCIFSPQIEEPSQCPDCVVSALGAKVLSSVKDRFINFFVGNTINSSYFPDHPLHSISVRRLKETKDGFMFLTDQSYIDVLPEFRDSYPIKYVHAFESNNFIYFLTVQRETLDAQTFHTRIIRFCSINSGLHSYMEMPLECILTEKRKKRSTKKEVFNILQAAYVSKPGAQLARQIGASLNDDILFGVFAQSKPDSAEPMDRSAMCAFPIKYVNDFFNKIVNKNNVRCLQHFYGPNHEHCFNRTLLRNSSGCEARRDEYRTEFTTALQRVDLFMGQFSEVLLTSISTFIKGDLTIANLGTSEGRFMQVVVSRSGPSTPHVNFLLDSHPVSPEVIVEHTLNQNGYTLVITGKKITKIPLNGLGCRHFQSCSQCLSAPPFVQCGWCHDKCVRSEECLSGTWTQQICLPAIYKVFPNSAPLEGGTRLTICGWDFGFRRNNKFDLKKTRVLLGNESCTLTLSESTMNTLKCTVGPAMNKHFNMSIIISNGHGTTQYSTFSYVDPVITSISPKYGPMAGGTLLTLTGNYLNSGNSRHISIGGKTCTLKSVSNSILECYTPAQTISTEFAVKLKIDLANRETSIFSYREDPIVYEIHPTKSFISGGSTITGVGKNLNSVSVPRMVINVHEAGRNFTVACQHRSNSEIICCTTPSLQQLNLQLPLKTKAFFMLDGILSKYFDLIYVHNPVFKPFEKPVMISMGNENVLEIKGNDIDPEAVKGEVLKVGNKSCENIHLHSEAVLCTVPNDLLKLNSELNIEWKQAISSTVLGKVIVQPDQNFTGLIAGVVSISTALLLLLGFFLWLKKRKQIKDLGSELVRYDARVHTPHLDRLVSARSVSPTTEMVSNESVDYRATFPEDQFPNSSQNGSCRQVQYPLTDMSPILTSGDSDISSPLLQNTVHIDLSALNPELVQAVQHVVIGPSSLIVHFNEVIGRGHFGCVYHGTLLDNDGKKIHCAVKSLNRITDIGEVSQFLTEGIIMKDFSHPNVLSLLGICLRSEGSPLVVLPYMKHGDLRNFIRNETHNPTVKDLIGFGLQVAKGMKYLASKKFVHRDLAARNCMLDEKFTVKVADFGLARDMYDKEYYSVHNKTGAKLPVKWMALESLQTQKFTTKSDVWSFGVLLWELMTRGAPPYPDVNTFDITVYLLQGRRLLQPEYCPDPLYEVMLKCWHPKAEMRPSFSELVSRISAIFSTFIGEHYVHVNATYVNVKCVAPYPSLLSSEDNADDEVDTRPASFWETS
Protocol for CYP3A4: The ability of compound to inhibit the major human cytochrome P450s (CYPs) responsible for drug metabolism was evaluated in vitro using recombinant human CYP isoforms. […] CYP3A4 inhibition was evaluated with two substrates: 7-benzyloxy-4-trifluoromethylcoumarin (BFC) and resorufin benzyl ether (BzRes). A single concentration of each model substrate (at approximately the apparent Km, with the exception of BFC, which was tested below the apparent Km) and multiple concentrations of the test compounds, separated by approximately ½ log units, were tested in duplicate. Metabolism of the model substrates was assayed by the production of 7-hydroxy-3-cyanocoumarin, 3-[2-(N,N-diethylamino)ethyl]-7-hydroxy-4-methylcoumarin, 7-hydroxy-4-trifluoromethylcoumarin or resorufin, and measured via fluorescence detection. Assays were conducted in 96-well microtiter plates in the presence of an NADPH generating system. Positive control samples were included in these studies. […] The IC50 values were calculated utilizing XLfit curve-fitting software.
Protocol for GST-Met kinase: Incubation mixtures employed for the Met kinase assay contain a baculovirus expressed GST-Met kinase, the synthetic substrate polyGlu:Tyr, (4:1), ATP, ATP-γ-^33 P and buffer containing Mn^++, DTT, BSA, and Tris. Reactions were incubated for 60 minutes at 30° C. and stopped by the addition of cold trichloroacetic acid (TCA) to a final concentration 8%. TCA precipitates were collected onto GF/C unifilter plates (Packard Instrument Co., Meriden, Conn.) using a Filtermate universal harvester (Packard Instrument Co., Meriden, Conn.) and the filters are quantitated using a TopCount 96/384-well liquid scintillation counter (Packard Instrument Co., Meriden, Conn.). Dose response curves were generated to determine the concentration required to inhibit 50% of kinase activity (IC—50). Compounds were dissolved at 10 mM in dimethyl sulfoxide (DMSO) and evaluated at ten concentrations, each in duplicate. The final concentration of DMSO in the assay is 1.7%. IC—50 values were derived by non-linear regression.

`CCOc1ccn(-c2ccc(F)cc2)c(=O)c1C(=O)Nc1ccc(Oc2ccnc(N)c2Cl)c(F)c1` [Compound 1, N-(4-(2-Amino-3-chloropyridin-4-yloxy)-3-fluorophenyl)-4-ethoxy-1-(4-fluorophenyl)-2-oxo-1,2-dihydropyridine-3-carboxamide]: the AUC(0-t) in series [1] worked out at 236 µM·h. Also, in series [2] (GTL-16 study, 6.25 mg/kg to 50 mg/kg dosed once a day for 14 days), the overt toxicity entry is listed as “No overt toxicity was observed”. Also, the “maximum efficacious dose level” value in series [2] (GTL-16 tumor xenograft) amounted to 25 mg/kg. Further, in series [2] (GTL-16 tumor xenograft), the “minimum efficacious dose (MED)” value was determined as 6.25 mg/kg. For the same compound, the antitumor activity result in series [2] (GTL-16 xenografts, 25 mg/kg) is “complete tumor stasis”; in series [2] (GTL-16 xenografts, 50 mg/kg) it was “complete tumor stasis”; in series [3] (25 mg/kg), “complete tumor stasis”; in series [3] (50 mg/kg), “complete tumor stasis”. For the same compound, the “antitumor activity at higher dose” value in series [2] (GTL-16 xenografts, 100 mg/kg, previously described study) is given as “no increase in activity was observed”. The “tumor growth inhibition (TGI)” value is given as “greater than 50%” in series [2] (GTL-16 xenografts, lowest dose level tested, 6.25 mg/kg) and “greater than 50%” in series [2] (GTL-16 xenografts, multiple dose levels ranging from 6.25 mg/kg to 50 mg/kg, once a day for 14 days, for at least one tumor doubling time). At GST-Met kinase, this compound displayed an IC50 of 3.5 nM.
As to `Cl.Nc1cc(Oc2ccc(NC(=O)c3cccn(-c4ccc(F)cc4)c3=O)cc2F)ccn1` [Compound 2, N-(4-(2-Aminopyridin-4-yloxy)-3-fluorophenyl)-1-(4-fluorophenyl)-2-oxo-1,2-dihydropyridine-3-carboxamide, hydrochloride salt], in series [1], the AUC(0-t) was 33 µM·h. Moreover, the IC50 on CYP3A4 (substrate 7-benzyloxy-4-trifluoromethylcoumarin (BFC), read-out: CYP 3A4-BFC IC50) was determined as 510 nM; at CYP3A4 (substrate resorufin benzyl ether (BzRes), read-out: CYP 3A4-BZR IC50), 6400 nM.

These data come from patent US7851489B2, “Pyridinone compounds” (Bristol-Myers Squibb Company, priority 2006, dated 2010).
